ChEMBL document CHEMBL1134924, “An efficient and practical method for solid-phase synthesis of tripeptide-bearing glycopeptide antibiotics: combinatorial parallel synthesis of carboxamide derivatives of chloroorienticin B” (2002)
Converted amounts (≈) assume the structure as drawn.

Legend:
Format in all cases: functional
[1] = system: Enterococcus faecium; assay: In vitro antibacterial activity against VRE (Vancomycin Resistant Enterococcus faecium SR-7917)
[2] = system: Enterococcus faecalis; assay: In vitro antibacterial activity against VRE (Vancomycin Resistant Enterococcus faecalis SR-7914)
[3] = system: Staphylococcus aureus; assay: In vitro antibacterial activity against MRSA (Methicillin Resistant Staphylococcus aureus SR-3637)

Row | SMILES | MIC [1] [µg/mL] | MIC [2] [µg/mL] | MIC [3] [µg/mL]
1 | CN[C@H](CC(C)C)C(=O)N[C@H]1C(=O)N[C@@H](CC(N)=O)C(=O)N[C@H]2C(=O)N[C@H]3C(=O)NC(C(=O)N[C@@H](C(=O)NC(=O)[C@H](CCC(=O)O)NC(=O)CNC(=O)[C@@H](N)Cc4ccc(O)cc4)c4cc(O)cc(O)c4-c4cc3ccc4O)[C@H](O[C@H]3C[C@](C)(N)[C@@H](O)[C@H](C)O3)c3ccc(c(Cl)c3)Oc3cc2cc(c3O[C@@H]2O[C@H](CO)[C@@H](O)[C@H](O)[C@H]2O)Oc2ccc(cc2Cl)[C@H]1O | > 128 | > 128 | 4 (≈ 2.23 µM)
2 | CN[C@H](CC(C)C)C(=O)N[C@H]1C(=O)N[C@@H](CC(N)=O)C(=O)N[C@H]2C(=O)N[C@H]3C(=O)NC(C(=O)N[C@@H](C(=O)NC(=O)[C@H](CCCCN)NC(=O)[C@H](Cc4c[nH]c5ccccc45)NC(=O)[C@@H](N)CC(C)C)c4cc(O)cc(O)c4-c4cc3ccc4O)[C@H](O[C@H]3C[C@](C)(N)[C@@H](O)[C@H](C)O3)c3ccc(c(Cl)c3)Oc3cc2cc(c3O[C@@H]2O[C@H](CO)[C@@H](O)[C@H](O)[C@H]2O)Oc2ccc(cc2Cl)[C@H]1O | 16 (≈ 8.53 µM) | 32 (≈ 17.1 µM) | 0.5 (≈ 0.267 µM)
3 | CN[C@H](CC(C)C)C(=O)N[C@H]1C(=O)N[C@@H](CC(N)=O)C(=O)N[C@H]2C(=O)N[C@H]3C(=O)NC(C(=O)N[C@@H](C(=O)NC(=O)[C@H](CCCCN)NC(=O)CNC(=O)[C@@H](N)Cc4ccc(O)cc4)c4cc(O)cc(O)c4-c4cc3ccc4O)[C@H](O[C@H]3C[C@](C)(N)[C@@H](O)[C@H](C)O3)c3ccc(c(Cl)c3)Oc3cc2cc(c3O[C@@H]2O[C@H](CO)[C@@H](O)[C@H](O)[C@H]2O)Oc2ccc(cc2Cl)[C@H]1O | 64 (≈ 35.6 µM) | 128 (≈ 71.2 µM) | 0.5 (≈ 0.278 µM)
4 | CN[C@H](CC(C)C)C(=O)N[C@H]1C(=O)N[C@@H](CC(N)=O)C(=O)N[C@H]2C(=O)N[C@H]3C(=O)N[C@H](C(=O)N[C@H](C(=O)NC(=O)[C@H](Cc4c[nH]cn4)NC(=O)[C@@H]4CCCN4C(=O)[C@@H](N)Cc4c[nH]c5ccccc45)c4cc(O)cc(O)c4-c4cc3ccc4O)[C@H](O[C@H]3C[C@](C)(N)[C@@H](O)[C@H](C)O3)c3ccc(c(Cl)c3)Oc3cc2cc(c3OC2O[C@H](CO)[C@@H](O)[C@H](O)[C@H]2O)Oc2ccc(cc2Cl)[C@H]1O (some centres not stated) | 16 (≈ 8.56 µM) | 64 (≈ 34.2 µM) | 0.5 (≈ 0.268 µM)
5 | CN[C@H](CC(C)C)C(=O)N[C@H]1C(=O)N[C@@H](CC(N)=O)C(=O)N[C@H]2C(=O)N[C@H]3C(=O)NC(C(=O)N[C@@H](C(=O)NC(=O)[C@H](Cc4c[nH]cn4)NC(=O)[C@H](Cc4c[nH]c5ccccc45)NC(=O)[C@@H](N)Cc4ccc(O)cc4)c4cc(O)cc(O)c4-c4cc3ccc4O)[C@H](O[C@H]3C[C@](C)(N)[C@@H](O)[C@H](C)O3)c3ccc(c(Cl)c3)Oc3cc2cc(c3O[C@@H]2O[C@H](CO)[C@@H](O)[C@H](O)[C@H]2O)Oc2ccc(cc2Cl)[C@H]1O | 8 (≈ 4.13 µM) | 16 (≈ 8.27 µM) | 0.5 (≈ 0.258 µM)
6 | CN[C@H](CC(C)C)C(=O)N[C@H]1C(=O)N[C@@H](CC(N)=O)C(=O)N[C@H]2C(=O)N[C@H]3C(=O)NC(C(=O)N[C@@H](C(=O)NC(=O)CNC(=O)[C@H](Cc4c[nH]cn4)NC(=O)[C@@H](N)Cc4c[nH]c5ccccc45)c4cc(O)cc(O)c4-c4cc3ccc4O)[C@H](O[C@H]3C[C@](C)(N)[C@@H](O)[C@H](C)O3)c3ccc(c(Cl)c3)Oc3cc2cc(c3O[C@@H]2O[C@H](CO)[C@@H](O)[C@H](O)[C@H]2O)Oc2ccc(cc2Cl)[C@H]1O | 16 (≈ 8.75 µM) | 32 (≈ 17.5 µM) | 0.25 (≈ 0.137 µM)
7 | CN[C@H](CC(C)C)C(=O)N[C@H]1C(=O)N[C@@H](CC(N)=O)C(=O)N[C@H]2C(=O)N[C@H]3C(=O)NC(C(=O)N[C@@H](C(=O)NC(=O)CNC(=O)[C@H](Cc4c[nH]c5ccccc45)NC(=O)[C@@H](N)CCCCN)c4cc(O)cc(O)c4-c4cc3ccc4O)[C@H](O[C@H]3C[C@](C)(N)[C@@H](O)[C@H](C)O3)c3ccc(c(Cl)c3)Oc3cc2cc(c3O[C@@H]2O[C@H](CO)[C@@H](O)[C@H](O)[C@H]2O)Oc2ccc(cc2Cl)[C@H]1O | 32 (≈ 17.6 µM) | 64 (≈ 35.2 µM) | 0.25 (≈ 0.137 µM)
8 | CN[C@H](CC(C)C)C(=O)N[C@H]1C(=O)N[C@@H](CC(N)=O)C(=O)N[C@H]2C(=O)N[C@H]3C(=O)NC(C(=O)N[C@@H](C(=O)NC(=O)[C@H](Cc4ccc(O)cc4)NC(=O)[C@H](Cc4c[nH]c5ccccc45)NC(=O)[C@@H](N)CCC(=O)O)c4cc(O)cc(O)c4-c4cc3ccc4O)[C@H](O[C@H]3C[C@](C)(N)[C@@H](O)[C@H](C)O3)c3ccc(c(Cl)c3)Oc3cc2cc(c3O[C@@H]2O[C@H](CO)[C@@H](O)[C@H](O)[C@H]2O)Oc2ccc(cc2Cl)[C@H]1O | > 128 | > 128 | 8 (≈ 4.15 µM)
9 | CN[C@H](CC(C)C)C(=O)N[C@H]1C(=O)N[C@@H](CC(N)=O)C(=O)N[C@H]2C(=O)N[C@H]3C(=O)NC(C(=O)N[C@@H](C(=O)NC(=O)[C@H](CO)NC(=O)[C@H](Cc4c[nH]c5ccccc45)NC(=O)[C@@H](N)Cc4ccc(O)cc4)c4cc(O)cc(O)c4-c4cc3ccc4O)[C@H](OC3C[C@](C)(N)[C@@H](O)[C@H](C)O3)c3ccc(c(Cl)c3)Oc3cc2cc(c3O[C@@H]2O[C@H](CO)[C@@H](O)[C@H](O)[C@H]2O)Oc2ccc(cc2Cl)[C@H]1O (some centres not stated) | 16 (≈ 8.49 µM) | 32 (≈ 17 µM) | 0.5 (≈ 0.265 µM)
10 | CN[C@H](CC(C)C)C(=O)N[C@H]1C(=O)N[C@@H](CC(N)=O)C(=O)N[C@H]2C(=O)N[C@H]3C(=O)NC(C(=O)N[C@@H](C(=O)NC(=O)[C@H](CCCCN)NC(=O)[C@H](Cc4ccc(O)cc4)NC(=O)[C@@H](N)CC(C)C)c4cc(O)cc(O)c4-c4cc3ccc4O)[C@H](O[C@H]3C[C@](C)(N)[C@@H](O)[C@H](C)O3)c3ccc(c(Cl)c3)Oc3cc2cc(c3O[C@@H]2O[C@H](CO)[C@@H](O)[C@H](O)[C@H]2O)Oc2ccc(cc2Cl)[C@H]1O | 32 (≈ 17.3 µM) | 128 (≈ 69.1 µM) | 0.5 (≈ 0.27 µM)
11 | CN[C@H](CC(C)C)C(=O)N[C@H]1C(=O)N[C@@H](CC(N)=O)C(=O)N[C@H]2C(=O)N[C@H]3C(=O)NC(C(=O)N[C@@H](C(=O)NC(=O)[C@H](Cc4ccc(O)cc4)NC(=O)[C@H](Cc4c[nH]cn4)NC(=O)[C@@H](N)CCCCN)c4cc(O)cc(O)c4-c4cc3ccc4O)[C@H](O[C@H]3C[C@](C)(N)[C@@H](O)[C@H](C)O3)c3ccc(c(Cl)c3)Oc3cc2cc(c3O[C@@H]2O[C@H](CO)[C@@H](O)[C@H](O)[C@H]2O)Oc2ccc(cc2Cl)[C@H]1O | 64 (≈ 34.1 µM) | 128 (≈ 68.2 µM) | 1 (≈ 0.533 µM)
12 | CN[C@H](CC(C)C)C(=O)N[C@H]1C(=O)N[C@@H](CC(N)=O)C(=O)N[C@H]2C(=O)N[C@H]3C(=O)NC(C(=O)N[C@@H](C(=O)NC(=O)[C@H](Cc4ccc(O)cc4)NC(=O)[C@H](Cc4c[nH]c5ccccc45)NC(=O)[C@@H](N)CC(C)C)c4cc(O)cc(O)c4-c4cc3ccc4O)[C@H](O[C@H]3C[C@](C)(N)[C@@H](O)[C@H](C)O3)c3ccc(c(Cl)c3)Oc3cc2cc(c3O[C@@H]2O[C@H](CO)[C@@H](O)[C@H](O)[C@H]2O)Oc2ccc(cc2Cl)[C@H]1O | 8 (≈ 4.19 µM) | 16 (≈ 8.37 µM) | 0.5 (≈ 0.262 µM)
13 | CN[C@H](CC(C)C)C(=O)N[C@H]1C(=O)N[C@@H](CC(N)=O)C(=O)N[C@H]2C(=O)N[C@H]3C(=O)NC(C(=O)N[C@@H](C(=O)NC(=O)[C@H](Cc4c[nH]cn4)NC(=O)[C@H](CCCCN)NC(=O)[C@@H](N)Cc4c[nH]c5ccccc45)c4cc(O)cc(O)c4-c4cc3ccc4O)[C@H](O[C@H]3C[C@](C)(N)[C@@H](O)[C@H](C)O3)c3ccc(c(Cl)c3)Oc3cc2cc(c3O[C@@H]2O[C@H](CO)[C@@H](O)[C@H](O)[C@H]2O)Oc2ccc(cc2Cl)[C@H]1O | 8 (≈ 4.21 µM) | 64 (≈ 33.7 µM) | < 0.125
14 | CN[C@H](CC(C)C)C(=O)N[C@H]1C(=O)N[C@@H](CC(N)=O)C(=O)N[C@H]2C(=O)N[C@H]3C(=O)NC(C(=O)N[C@@H](C(=O)O)c4cc(O)cc(O)c4-c4cc3ccc4O)[C@H](O[C@H]3C[C@](C)(N)[C@@H](O)[C@H](C)O3)c3ccc(c(Cl)c3)Oc3cc2cc(c3O[C@@H]2O[C@H](CO)[C@@H](O)[C@H](O)[C@H]2O)Oc2ccc(cc2Cl)[C@H]1O | > 128 | > 128 | 0.5 (≈ 0.345 µM)
